Data set [1] relates to Canidae. To be noted: oral, Dog Other, clinical chemistry.
Data set [2] has as its system Lepomis macrochirus. To be noted: acute; duration: 96 hours; mortality.
The test system of data set [3] is Rattus norvegicus.
Data set [4] relates to Pimephales promelas. To be noted: chronic/long-term; duration: 34 days; growth.
For data set [5], the system named is Daphnia magna. To be noted: chronic/long-term; duration: 21 days.
Data set [6] deals with Apis mellifera. To be noted: acute; duration: 48 hours; oral; unspecified; mortality.
For data set [7], the system named is Tagia sp. To be noted: acute; duration: 14 days; mortality.
The subject of data set [8] is Anas platyrhynchos.
The subject of data set [9] is Typhlodromus pyri. The data set can be described thus: LR50; higher = less toxic. To be noted: not reported; mortality.

In brackets after ≈: the same amount, converted by molar mass.

`CCOP(=S)(OCC)Oc1cc(C)nc(C(C)C)n1` [Diazinon]: the NOAEL in [1] (chronic, duration: 52 weeks) was 0.02 mg/kg-day; in data set [1] (subchronic, duration: 90 days), 0.02 mg/kg-day; in [3] (acute, oral, clinical chemistry), 2.5 mg/kg-day. Besides, the LC50 in data set [2] came to 0.27 µg/mL (≈ 0.887 µM); in data set [7], 65 mg/kg; in data set [8] (short-term, duration: 8 days, oral, feed, mortality), 8 mg/kg-day. Further, the LD50 is 1130 mg/kg-day in data set [3] (acute, oral, mortality); 0.09 µg/piece in data set [6]; 1.44 mg/kg in data set [8] (acute, oral, unspecified, mortality). For the same compound, the NOEC in data set [3] (reproduction developmental, reproduction) was 0.65 mg/kg-day; in data set [4], 0.092 mg/L; in [5], 0.00017 mg/L. For the same compound, the NOEL in data set [7] came out at 6.15 mg/kg; in [8] (reproductive) it was 1.2 mg/kg-day. Also, in [9], the LR50 worked out at 0.153 g/ha.

Values taken from EPA's ToxValDB 9.5 (doi:10.2903/j.efsa.2006.85r).
